Test results: paper PMC10266688 (PLOS ONE, 2023)

Key:
RPN13 = target: T1, RPN13 (Homo sapiens, UniProt Q16186); test: Cellular Thermal Shift Assay (CETSA), SKOV3 cells; format: binding; details: SKOV3, 10 μM, 30 min, vs DMSO
T1 construct: endogenous in cells; host or cells: SKOV3 cells
Experimental: Cells were incubated in a thermal cycler (Biorad IQ5 Cycler) over a gradient of temperatures for 4 min, followed by incubation at 25°C for 3 min, then snap-frozen in liquid nitrogen and subjected to three freeze–thaw cycles. Samples were briefly vortexed and centrifuged at 16,000 x g for 20 min at 4°C. Cleared cell lysates were resolved in SDS–PAGE followed by immunoblotting for RPN13, GAPDH, RPN2 and USP14.
Cellular Thermal Shift Assay (CETSA) assesses thermal stabilization of proteins upon ligand binding and is used extensively to detect drug interactions by implementing a thermal shift in the cellular context. The assay involves drug treatment of cells, heating to denature and precipitate proteins in a thermocycler with a specified gradient of temperatures, cell lysis by freeze/thaw cycles, and the separation of cell debris and aggregates from the soluble protein fraction by centrifugation. Whereas unbound proteins denature and precipitate at elevated temperatures, ligand-bound proteins remain in solution. The proportion of individual proteins remaining in solution can be detected by quantitative Western blotting. […]. There was no impact on other control proteins tested, including a house keeping protein (GAPDH) and proteasome subunits (RPN2 and USP14). […]
Resuspended cells were aliquoted into PCR strips. […]

[1] = test system: PEA2, PACS and SKOV3 cells; test: Checkerboard combination cytotoxicity (MTT, Synergy finder); format: cell-based; details: 72 h
Experimental: Results are reported as mean ± standard deviation (s.d.). Statistical significance of differences was assessed by two-tailed Student’s t using Prism (V.5 Graphpad, San Diego, CA) with the level of significance set at p≤0.05. Survival was summarized using Kaplan–Meier methods and compared using log-rank tests. Combination indices (CI) were calculated using Synergy finder.
Cell viability was measured using MTT assay and data was processed using the Synergy Finder web application. B) Same as in A, PACS cell line derived from spontaneous mouse ovarian tumor [32], was used. (TIF) Click here for additional data file.
Cell viability was measured using MTT assay and data was processed using the Synergy Finder web application. (TIF) Click here for additional data file.

Neat solution stability = format: physicochemical; details: 10 μM, 37°C
Experimental: (§1) An incubation mixture with, and without NADPH-generating system, as well as a neat solution prepared without microsomes and NADPH-generating system was used. […] All reactions were initiated with the addition of Up284. Incubations were performed in glass tubes maintained at 37°C in a shaker bath. At 0, 30, and 60 minutes, 10 μL samples were withdrawn from the reaction mixture, and 0.5 mL of acetonitrile containing internal standard was added to each. Samples were vortex-mixed and subjected to centrifugation for 5 min at 1430 x g. A 10 μL aliquot of the supernatant was injected onto the LC-MS/MS instrument for qualitative analysis using a temperature-controlled autosampling device operating at 5°C.

[2] = Microsomal stability, mouse liver microsomes; format: in vitro ADME; details: for % Drug Remaining NADPH Neg, Mouse Liver Microsomes / % Drug Remaining NADPH Pos, Mouse Liver Microsomes: 10 μM
Experimental: as §1

[3] = Repeat IP dosing tolerability in Balb/c and C57BL/6 mice; format: in vivo; details: female Balb/c and C57BL/6 mice
[4] = test system: ID8-luc murine ovarian tumor; test: ID8-Defb29/VegfA-luc syngeneic model, C57BL6 mice; format: in vivo, mouse
Experimental: Female C57BL6 mice were inoculated IP with 3x10^5 ID8-Defb29/VegfA-luc cells in 100 μL PBS. At day 3, mice were imaged for basal level luminescence activity with a Xenogen IVIS 200 after IP injection with luciferin (0.3 mg in 100 μL water). Mice were randomized into groups and treated IP with compounds or vehicle (25% (w/v) β-Hydroxypropylcyclodextrin in water), and imaged again on days indicated.
(§2) A-C) Female nude mice were inoculated IP with ES2-luc cells, a human ovarian cancer line expressing luciferase. […] The IP tumor tissue and electroporated normal muscle tissue, being spatially distinct, were identified with separate regions of interest (ROI) after simultaneous imaging with IVIS.
Female C57BL6 mice (4–6 weeks) were challenged IP with ID8-luc tumor.

[5] = test system: proteasome (4UbFL reporter); test: 4UbFL reporter in ES2-4UbFL tumor and leg muscle of nude mice; format: in vivo, mouse; details: single IP dose Up284 20mg/kg or bortezomib 0.75 mg/kg, 4 h and 24 h
Experimental: as §2
Briefly mice were inoculated IP with ES2 cells stably expressing 4UbFL. After 48 h, the mice were injected with luciferin, imaged and then randomized into 3 groups (n = 5/group). Next, leg muscle of each mouse was electroporated with 4UbFL plasmid (considered as normal tissue). After 48 h (i.e. day 4) the mice were re-imaged and basal bioluminescence (0 h) was separately measured in the leg muscle and peritoneal ROIs.

TOV21G and ES2 cells = test: Annexin V apoptosis assay; details: 12 h
ES2 cells = test: Seahorse assay (OCR, ECAR)
[6] = test system: panel of cancer cell lines; test: MTT cytotoxicity, broad panel of cancer cell lines and normal cells (Fig 1B); details: 72 h

T1 sequence (Q16186 whole entry): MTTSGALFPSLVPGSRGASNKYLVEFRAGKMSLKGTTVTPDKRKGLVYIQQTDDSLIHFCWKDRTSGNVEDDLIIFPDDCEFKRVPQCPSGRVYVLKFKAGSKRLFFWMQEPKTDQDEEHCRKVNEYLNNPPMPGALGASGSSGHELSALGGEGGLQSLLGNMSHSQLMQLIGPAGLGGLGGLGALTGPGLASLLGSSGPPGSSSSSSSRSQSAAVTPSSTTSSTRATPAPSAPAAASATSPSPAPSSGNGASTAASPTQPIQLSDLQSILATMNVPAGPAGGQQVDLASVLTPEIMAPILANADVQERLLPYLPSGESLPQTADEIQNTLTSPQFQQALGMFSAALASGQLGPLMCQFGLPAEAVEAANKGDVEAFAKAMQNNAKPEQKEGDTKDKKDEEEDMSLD

N#Cc1ccc(/C=C2/C(=O)/C(=C/c3ccc(C#N)cc3)C23CCNCC3)cc1 [Up284]
thermal stabilization of RPN13 (RPN13): stabilized
cytotoxicity of Up284 and doxorubicin combination ([1]; SKOV3 cells): synergy
cytotoxicity of checkerboard combinations of Up284 and cisplatin ([1]; several cell lines including PEA2 and PACS): clear evidence of synergy
% Drug Remaining, Neat Solution (Neat solution stability; 0 min): 100%
% Drug Remaining, Neat Solution (Neat solution stability; 30 min): 86%
% Drug Remaining, Neat Solution (Neat solution stability; 60 min): 78%
additional degradation in the presence of NADPH, mouse liver microsomes [2]: ~ 10%
degradation in mouse liver microsomes without NADPH [2]: ~ 50%
% Drug Remaining NADPH Neg, Mouse Liver Microsomes ([2]; 0 min): 100%
% Drug Remaining NADPH Pos, Mouse Liver Microsomes ([2]; 0 min): 100%
% Drug Remaining NADPH Neg, Mouse Liver Microsomes ([2]; 30 min): 60%
% Drug Remaining NADPH Pos, Mouse Liver Microsomes ([2]; 30 min): 45%
% Drug Remaining NADPH Neg, Mouse Liver Microsomes ([2]; 60 min): 51%
% Drug Remaining NADPH Pos, Mouse Liver Microsomes ([2]; 60 min): 38%
tolerability of 60 mg/kg IP every third day [3]: toxic
MTD ([3]; mouse, in vivo, ip, read-out: MTD after 3 doses, IP delivery every third day): 40 mg/kg
survival vs vehicle ([4]; C57BL6, 20 mg/kg IP every third day for 4 weeks, p = 0.0004): significantly enhanced survival
ID8-luc tumor burden (bioluminescence) vs vehicle ([4]; C57BL6, 20 mg/kg IP every third day, day 15, p = 0.0001): significantly lower tumor burden
4UbFL bioluminescence signal in muscle tissue vs tumor [5]: similarly enhanced the bioluminescence signal
apoptosis, Up284 in combination with cisplatin (TOV21G and ES2 cells): no indication of synergy
proton leakage (ES2 cells; ES2, 0.5 μM): did not impact
oxygen consumption rate (OCR), basal and FCCP-stimulated, and ATP production (ES2 cells; ES2, 0.5 μM, 12 h): significant decrease in OCR
extracellular acidification rate (ECAR) (ES2 cells; ES2, after 24 h treatment): trend for reduction
cytotoxicity against normal cells [6]: relatively spared normal cells
sensitivity of HCT116 cells regardless of Tp53 status [6]: similarly sensitive
sensitivity of RPMI8226 and ANBL6 and bortezomib-resistant (-V10R) lines [6]: similarly very sensitive
